“Also recorded” adds a separate entry of the source. Where two headings read alike, the source gives them in different places.
Columns and labels:
apomorphine = test: Apomorphine antagonistic action (antidopaminergic action), climbing in mice; format: in vivo, mouse; settings: for ED50: Mus musculus, po, apomorphine 1.21 mg/kg s.c., dose reducing climbing scores by 50% vs control, read-out: Antimonaminergic action: Apomorphine antagonism, mouse, ED50 %; for Antimonaminergic action (in words): apomorphine (mouse) and L-5HTP (rat) antagonism together, comparison of isomers and with comparative substance
Procedure: In mice kept in a suitable environment (e.g. a wiremesh cage), apomorphine (1.21 mg/kg, administered subcutaneously) leads to increased climbing. The animals are observed for 30 minutes after administration of apomorphine, and the climbing is quantified every 2 minutes with the aid of a score. The test substances are administered perorally 60 minutes […] administration of apomorphine. The ED50 % is calculated as the dose which reduces the scores by 50% compared with a control group.

L-5HTP = test: L-5-HTP antagonism (serotonin antagonism) in the rat; format: in vivo; settings: po, read-out: Antimonaminergic action: L-5HTP antagonism, rat, ED50 %
Procedure: In the rat (316 mg/kg, administered intraperitoneally), L-5-[…] (L-5HTP), a prodrug for serotonin, leads to signs of agitation, such as shaking of the head, tremors and movements of the front feet. The animals are observed for 1 hour after administration of L-5HTP, and the symptoms occurring are quantified every 10 minutes with the aid of a score. The test substances are administered perorally 1 hour before L-5HTP. The ED50 % is calculated as the dose which produces on average a 50% reduction in the scores observed for a control group.

[1] = system: orientation hypermotility; test: Sedative action in the mouse (inhibition of orientation hypermotility); format: in vivo, mouse (female NMRI); settings: for ED50: Mus musculus, 0.5 h, female NMRI mice, oral, dose giving 50% reduction in orientation hypermotility, measured from 30 min after administration over 30 min; for Sedative action (in words): comparison of cis/trans isomers and with comparative substance
Procedure: The substances are administered orally to 4-8 groups of female NMRI mice, each group comprising 3 mice. The orientation hypermotility induced by a new environment was determined photoelectrically 30 minutes after administration of the substances, over a period of 30 minutes.
The ED50 %, i.e. the dose which produces a 50% reduction in orientation hypermotility compared to placebo-treated control animals, is determined.

physostigmin = test: Anticholinergic action (protection from physostigmin lethality) in the mouse; format: in vivo, mouse (female NMRI); settings: for ED50: Mus musculus, po, read-out: Anticholinergic action, mouse, ED50 %; for Anticholinergic action (in words): comparison of isomers and with comparative substance
Procedure: A lethal dose (0.825 mg/kg) of physostigmin is administered subcutaneously to groups of 10 female NMRI mice. The test substances are administered orally 30 minutes before administration of physostigmin. The ED50 % is determined as the dose of substance which protects 50% of the animals from death due to physostigmin.

[2] = L-5HTP 316 mg/kg i.p., substance p.o. 1 hour before, 50% reduction in scores

CN1CCN(C2=Nc3ccccc3C(=CC#N)c3cscc32)CC1 (mixture of isomers) [Example 1, cis,trans-10-cyanomethylene-4-(4-methylpiperazin-1-yl)-thieno[4,3-e]benzoazepine]
ED50 (apomorphine): 1.7 mg/kg
ED50 (L-5HTP; [2]): 0.77 mg/kg
ED50 [1]: 0.89 mg/kg
ED50 (physostigmin): 15.8 mg/kg

CN1CCN(C2=Nc3cc(Cl)ccc3C(=CC#N)c3cscc32)CC1 (mixture of isomers) [Example 3, cis,trans-7-chloro-10-cyanomethylene-4-(4-methylpiperazin-1-yl)-thieno[4,3-e]benzoazepine]
ED50 (apomorphine): ~2 mg/kg
ED50 (L-5HTP; [2]): 0.8 mg/kg
ED50 [1]: 0.89 mg/kg
ED50 (physostigmin): > 21.5 mg/kg

CN1CCN(C2=Nc3cc(F)ccc3C(=CC#N)c3cscc32)CC1 (mixture of isomers) [Example 4, cis,trans-7-fluoro-10-cyanomethylene-4-(4-methylpiperazin-1-yl)-thieno[4,3-e]benzoazepine]
ED50 (apomorphine): ~2 mg/kg
ED50 (L-5HTP; [2]): 1 mg/kg
ED50 [1]: 3.27 mg/kg
ED50 (physostigmin): ~21 mg/kg

Cc1ccc2c(c1)N=C(N1CCN(C)CC1)c1cscc1C2=CC#N (mixture of isomers) [Example 5, cis,trans-7-methyl-10-cyanomethylene-4-(4-methylpiperazin-1-yl)-thieno[4,3-e]benzoazepine]
ED50 (apomorphine): ~2.1 mg/kg
ED50 (L-5HTP; [2]): 1.4 mg/kg
ED50 [1]: 3.75 mg/kg
ED50 (physostigmin): > 21.5 mg/kg

CCN1CCN(C2=Nc3ccccc3C(=CC#N)c3cscc32)CC1 (mixture of isomers) [Example 9, cis,trans-10-cyanomethylene-4-(4-ethylpiperazin-1-yl)-thieno[4,3-e]benzoazepine]
ED50 (apomorphine): 1 mg/kg
ED50 [1]: 0.81 mg/kg
ED50 (physostigmin): > 10 mg/kg

CN1CCN(C2=Nc3ccccc3/C(=C\C#N)c3cscc32)CC1 [1 (trans), trans-10-cyanomethylene-4-(4-methylpiperazin-1-yl)-thieno[4,3-e]benzoazepine]
ED50 (apomorphine): 10.9 mg/kg
Antimonaminergic action (in words) (apomorphine): fairly weak
ED50 (L-5HTP; [2]): 33 mg/kg
ED50 [1]: 5.1 mg/kg
Sedative action (in words) [1]: fairly weak
ED50 (physostigmin): 5.2 mg/kg
Anticholinergic action (in words) (physostigmin): predominates; also recorded: stronger than that of the comparative substances

CN1CCN(C2=Nc3cc(Cl)ccc3Nc3ccccc32)CC1 [Clozapine, clozapine, reference compound]
ED50 (apomorphine): 11.3 mg/kg
ED50 (L-5HTP; [2]): 6.3 mg/kg
ED50 [1]: 3.8 mg/kg

CN1CCN(C2=Nc3ccccc3/C(=C/C#N)c3cscc32)CC1 [Example 1 (cis), cis-10-cyanomethylene-4-(4-methylpiperazin-1-yl)-thieno[4,3-e]benzoazepine]
ED50 (apomorphine): 1 mg/kg
Antimonaminergic action (in words) (apomorphine): displayed preferentially by the cis isomer
ED50 (L-5HTP; [2]): 1 mg/kg
ED50 [1]: 0.35 mg/kg
Sedative action (in words) [1]: displayed preferentially by the cis isomer
ED50 (physostigmin): > 10 mg/kg
Anticholinergic action (in words) (physostigmin): greatly reduced

CN1CCN(C2=Nc3c(Cl)cccc3/C(=C\C#N)c3cscc32)CC1 [Example 16, trans-6-chloro-10-cyanomethylene-4(4-methylpiperazin-1-yl)-thieno[4,3-e]benzoazepine]
ED50 (L-5HTP): 1 mg/kg
ED50 [1]: ~3 mg/kg
ED50 (physostigmin): > 10 mg/kg

From patent publication US4745111A, “Anti-anxiety, anti-agitation, and anti-sleepless states 4-substituted 10-cyanomethylenethieno-[4,3-e]benzoazepine derivatives, compositions, and methods of use therefor” (priority 1985, dated 1988)
